{"source": "the supplement of paper PMC10307832"}
{"compound": "CCN1CCN(c2ccc(Nc3cc(N(C)C(=O)Nc4c(Cl)c(OC)cc(OC)c4Cl)ncn3)cc2)CC1 [BGJ398] + O=C(c1cc(Cc2n[nH]c(=O)c3ccccc23)ccc1F)N1CCN(C(=O)C2CC2)CC1 [Olaparib] (partner 8 µM)", "test": "relative viability (nuclei count vs DMSO), 5 days (fraction); higher = more cells survive", "conditions": "first compound 0.1 µM", "summary_of_the_method": "(§1)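 Dosing by pin tool came one day after lung cancer cell lines were seeded in 1536-well plates, using either one drug or a fixed anchor-drug dose plus five library-drug doses (not always all listed) in √10 steps. After 5 days, nuclei were counted on 4× images. Relative viability is treated-well nuclei count divided by vehicle-well nuclei count, and values are medians of duplicate plates.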"}
{"cell line": "NCI-H460", "relative viability": 0.428}
{"cell line": "NCI-H2347", "relative viability": 0.553}
{"cell line": "SK-LU-1", "relative viability": 0.539}
{"cell line": "NCI-H1395", "relative viability": 0.434}
{"cell line": "201T", "relative viability": 0.858}
{"cell line": "NCI-H1915", "relative viability": 0.252}
{"cell line": "HCC-827", "relative viability": 0.583}
{"cell line": "LXF-289", "relative viability": 1.17}
{"cell line": "NCI-H23", "relative viability": 0.303}
{"cell line": "NCI-H1299", "relative viability": 0.977}
{"cell line": "NCI-H647", "relative viability": 0.694}
{"cell line": "CAL-12T", "relative viability": 0.613}
{"cell line": "NCI-H1651", "relative viability": 0.188}
{"cell line": "EPLC-272H", "relative viability": 0.594}
{"cell line": "NCI-H2228", "relative viability": 0.512}
{"cell line": "NCI-H1792", "relative viability": 0.281}
{"cell line": "NCI-H1355", "relative viability": 0.736}
{"cell line": "NCI-H3122", "relative viability": 0.661}
{"cell line": "NCI-H1437", "relative viability": 0.587}
{"cell line": "NCI-H1755", "relative viability": 0.904}
{"cell line": "NCI-H2023", "relative viability": 0.513}
{"cell line": "HCC-15", "relative viability": 0.712}
{"cell line": "NCI-H1793", "relative viability": 1.02}
{"cell line": "PC-14", "relative viability": 0.254}
{"compound": "CCN1CCN(c2ccc(Nc3cc(N(C)C(=O)Nc4c(Cl)c(OC)cc(OC)c4Cl)ncn3)cc2)CC1 [BGJ398] + O=C(c1cc(Cc2n[nH]c(=O)c3ccccc23)ccc1F)N1CCN(C(=O)C2CC2)CC1 [Olaparib] (partner 8 µM)", "test": "relative viability (nuclei count vs DMSO), 5 days (fraction); higher = more cells survive", "conditions": "first compound 0.3162 µM", "summary_of_the_method": "as §1"}
{"cell line": "NCI-H522", "relative viability": 0.651}
{"cell line": "NCI-H727", "relative viability": 0.653}
{"cell line": "NCI-H1650", "relative viability": 0.826}
{"cell line": "EBC-1", "relative viability": 0.737}
{"cell line": "NCI-H1703", "relative viability": 0.364}
{"cell line": "NCI-H1993", "relative viability": 1.02}
{"cell line": "SW 1573", "relative viability": 0.543}
{"cell line": "NCI-H838", "relative viability": 0.741}
{"cell line": "LCLC-103H", "relative viability": 0.717}
{"cell line": "NCI-H520", "relative viability": 0.202}
{"cell line": "NCI-H2126", "relative viability": 0.865}
{"cell line": "EMC-BAC-2", "relative viability": 0.547}
{"cell line": "NCI-H2085", "relative viability": 0.693}
{"cell line": "Calu-6", "relative viability": 0.58}
{"cell line": "HCC-366", "relative viability": 0.335}
{"cell line": "NCI-H1666", "relative viability": 0.725}
{"cell line": "NCI-H596", "relative viability": 0.626}
{"cell line": "LK-2", "relative viability": 0.186}
{"cell line": "NCI-H2087", "relative viability": 0.609}
{"cell line": "NCI-H2342", "relative viability": 0.482}
{"cell line": "SK-MES-1", "relative viability": 0.659}
{"cell line": "H3255", "relative viability": 0.551}
{"cell line": "COR-L23", "relative viability": 0.337}
{"cell line": "COR-L 105", "relative viability": 0.733}
{"cell line": "IA-LM", "relative viability": 0.742}
{"cell line": "LOU-NH91", "relative viability": 0.699}
{"cell line": "ChaGo-K-1", "relative viability": 0.387}
{"cell line": "NCI-H2170", "relative viability": 0.57}
{"cell line": "NCI-H2405", "relative viability": 0.923}
{"cell line": "HOP-62", "relative viability": 0.349}
{"cell line": "HCC-44", "relative viability": 0.931}
{"cell line": "A549", "relative viability": 0.231}
{"cell line": "SW 900", "relative viability": 0.679}
{"cell line": "LU99A", "relative viability": 0.276}
{"cell line": "BEN", "relative viability": 0.991}
{"cell line": "HARA", "relative viability": 0.902}
{"cell line": "NCI-H1648", "relative viability": 0.85}
{"cell line": "HCC-78", "relative viability": 0.78}
{"cell line": "NCI-H322M", "relative viability": 0.758}
{"cell line": "LCLC-97TM1", "relative viability": 0.508}
{"cell line": "NCI-H2009", "relative viability": 0.718}
{"cell line": "A-427", "relative viability": 0.736}
{"cell line": "NCI-H441", "relative viability": 0.555}
{"cell line": "NCI-H661", "relative viability": 0.736}
{"cell line": "NCI-H1734", "relative viability": 0.609}
{"cell line": "NCI-H460", "relative viability": 0.414}
{"cell line": "NCI-H2347", "relative viability": 0.631}
{"cell line": "SK-LU-1", "relative viability": 0.348}
{"cell line": "NCI-H1395", "relative viability": 0.428}
{"cell line": "201T", "relative viability": 0.822}
{"cell line": "NCI-H1915", "relative viability": 0.256}
{"cell line": "HCC-827", "relative viability": 0.482}
{"cell line": "LXF-289", "relative viability": 0.919}
{"cell line": "NCI-H23", "relative viability": 0.371}
{"cell line": "NCI-H1299", "relative viability": 1}
{"cell line": "NCI-H647", "relative viability": 0.521}
{"cell line": "CAL-12T", "relative viability": 0.773}
